Reference: patent publication US5773014A, “Compositions and methods for inhibiting the formation of unwanted skin pigmentation” (priority 1996, dated 1998)
Values after ≈ are worked out from the molar mass of the structure shown.

Key:
cells in a culture = conditions: reported for other skin whiteners; cited from earlier work
tyrosinase = assay: in vitro tyrosinase inhibition (dopachrome formation from L-Dopa, spectrophotometry at 475 nm); format: biochemical
Text: Tyrosinase catalyzes the formation of L-dopaquinone, and then dopachrome (in the eumelanin pathway), from L-Dopa. […] Comparisons in the rate at which this colored substance appears in the presence of a candidate whitening material indicate the effect of the material on enzymatic activity; complete absence of dopachrome reflects total inhibition of tyrosinase.

human skin explants = conditions: 0.55% (w/v), positive control; L-Dopa 0.05M, 15 hours at 37° C.
Experimental: The anti-tyrosinase activity of the invention was also evaluated using an ex vivo tissue model by exposing human skin explants to the material. […] Oxidation of L-Dopa by tyrosinase produces in the melanocyte an observable black pigment, which can easily be detected by optical microscopy. Tyrosinase activity can be measured by the intensity of the observed coloration.
A positive control and a negative control were also conducted in the same experiment. […] The explants, each exposed to a different test solution, were incubated with L-Dopa (0.05M) for 15 hours at 37° C. After fixation and inclusion in paraffin, the skin slices were colored with hemalun/eosin/safran and cresyl violet, and observed by optical microscopy under white light.

solubility = format: physicochemical; conditions: read-out: max. solubility

| Compound | IC50 (cytotoxicity, kills more than 50% of the cells in a culture) (cells in a culture) [µg/mL] | Tyrosinase Inhibition (%) (tyrosinase; concentration 0.1%) | Tyrosinase Inhibition (%) (tyrosinase; concentration 5%) | Tyrosinase Inhibition (%) (tyrosinase; concentration 1%) | other results |
| --- | --- | --- | --- | --- | --- |
| O=C1O[C@H]([C@@H](O)CO)C(O)=C1O [Ascorbic acid, ascorbic acid] | 880 | 66 | – | – | – |
| Oc1ccc(O)cc1 [hydroquinone] | 5.5 | – | – | – | formation of melanin in explant melanocytes (human skin explants): completely inhibited the formation of melanin; tyrosinase-inhibiting activity (in words) (tyrosinase; tested at different concentrations (FIG. 1)): exhibits no tyrosinase-inhibiting activity |
| CCCCC/C=C\C/C=C\CCCCCCCC(=O)O [linoleic acid] | 2.8 | – | – | – | – |
| OC[C@H]1O[C@@H](Oc2ccc(O)cc2)[C@H](O)[C@@H](O)[C@@H]1O [Pure Arbutin, arbutin] | – | – | 45 | – | solubility (solubility): 50 mg/mL (≈ 184 mM); Tyrosinase Inhibition (%) (tyrosinase; concentration 0.2%): 20%; Tyrosinase Inhibition (%) (tyrosinase; concentration 0.5%): 25%; Tyrosinase Inhibition (%) (tyrosinase; concentration 2.5%): 35% |
| O=C(O)CN(CCN(CC(=O)O)CC(=O)O)CC(=O)O [EDTA, ethylenediaminetetraacetic acid] | – | 0 | 78.9 | 47.3 | – |
| O=c1cc(CO)occ1O [kojic acid] | – | 71 | – | 80 | – |
